One series addresses P110 δ/Pi3K δ (Homo sapiens, UniProt O00329). Nature of the series: Fluorescent (HTRF) determination of PI3K enzyme activity, δ isoform. In kind it is biochemical. The arrangement: inhibition: dose or concentration left out as unconfirmed. Conditions: for IC50: read-out: P110 δ/ Pi3K δ IC 50 nM. An outline of the steps: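 IC50 fitted from percent inhibition relative to blank and enzyme-only wells. Human PI3Kδ converts PIP2 to PIP3 after addition of 400 μM ATP solution, 30 min at room temperature. Product read by time-resolved FRET after stop and 6–18 h dark incubation with detection reagents.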
On the technique in general: TR-FRET usually uses a lanthanide donor and a delayed reading to cut background.

Chain of P110 δ/Pi3K δ (O00329 whole entry, canonical isoform): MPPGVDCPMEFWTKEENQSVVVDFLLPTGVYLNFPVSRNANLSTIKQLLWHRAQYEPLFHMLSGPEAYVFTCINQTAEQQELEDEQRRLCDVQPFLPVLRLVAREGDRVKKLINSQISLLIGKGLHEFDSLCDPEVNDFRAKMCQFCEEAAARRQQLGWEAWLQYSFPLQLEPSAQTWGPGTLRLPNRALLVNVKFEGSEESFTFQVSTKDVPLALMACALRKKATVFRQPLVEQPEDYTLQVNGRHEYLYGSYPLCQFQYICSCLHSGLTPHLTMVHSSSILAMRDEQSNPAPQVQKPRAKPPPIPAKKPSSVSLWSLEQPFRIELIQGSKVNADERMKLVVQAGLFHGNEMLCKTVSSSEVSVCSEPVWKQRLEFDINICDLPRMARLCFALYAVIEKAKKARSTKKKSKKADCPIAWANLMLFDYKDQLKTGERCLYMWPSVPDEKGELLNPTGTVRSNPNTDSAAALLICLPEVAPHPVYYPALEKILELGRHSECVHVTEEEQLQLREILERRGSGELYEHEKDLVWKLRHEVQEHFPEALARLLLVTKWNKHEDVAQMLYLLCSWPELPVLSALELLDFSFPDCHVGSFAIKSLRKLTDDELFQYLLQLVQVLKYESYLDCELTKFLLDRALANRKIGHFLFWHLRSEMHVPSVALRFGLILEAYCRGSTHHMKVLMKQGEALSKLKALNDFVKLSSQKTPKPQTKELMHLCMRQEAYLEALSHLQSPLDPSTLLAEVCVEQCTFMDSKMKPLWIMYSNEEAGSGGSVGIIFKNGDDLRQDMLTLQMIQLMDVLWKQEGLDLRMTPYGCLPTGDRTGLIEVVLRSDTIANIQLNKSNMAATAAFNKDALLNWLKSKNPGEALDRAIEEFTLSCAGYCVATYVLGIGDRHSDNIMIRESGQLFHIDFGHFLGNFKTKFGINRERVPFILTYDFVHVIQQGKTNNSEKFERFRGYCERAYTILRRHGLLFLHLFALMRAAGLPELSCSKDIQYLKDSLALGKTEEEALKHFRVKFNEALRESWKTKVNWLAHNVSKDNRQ
Chain of P110 δ/Pi3K δ (P27986 whole entry partner, canonical isoform): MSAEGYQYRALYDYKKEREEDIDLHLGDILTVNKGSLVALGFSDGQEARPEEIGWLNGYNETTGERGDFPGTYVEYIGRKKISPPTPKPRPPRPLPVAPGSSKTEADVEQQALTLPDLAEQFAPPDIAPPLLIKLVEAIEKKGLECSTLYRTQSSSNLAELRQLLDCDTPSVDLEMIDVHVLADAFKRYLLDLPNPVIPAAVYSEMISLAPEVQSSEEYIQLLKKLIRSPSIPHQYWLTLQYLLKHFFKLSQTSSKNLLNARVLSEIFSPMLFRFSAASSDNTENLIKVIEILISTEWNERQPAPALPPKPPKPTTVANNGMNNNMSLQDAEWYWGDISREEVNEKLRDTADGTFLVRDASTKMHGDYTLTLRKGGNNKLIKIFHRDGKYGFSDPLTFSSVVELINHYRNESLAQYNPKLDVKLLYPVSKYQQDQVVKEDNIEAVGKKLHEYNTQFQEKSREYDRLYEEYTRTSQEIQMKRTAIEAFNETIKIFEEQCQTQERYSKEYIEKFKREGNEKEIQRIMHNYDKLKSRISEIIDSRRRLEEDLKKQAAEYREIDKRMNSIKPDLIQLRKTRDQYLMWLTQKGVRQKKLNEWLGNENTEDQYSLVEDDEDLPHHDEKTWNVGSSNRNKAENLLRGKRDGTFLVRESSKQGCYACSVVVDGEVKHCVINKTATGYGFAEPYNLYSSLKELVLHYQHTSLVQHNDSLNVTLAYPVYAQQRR

In turn, `CC(c1oc2ccccc2c(=O)c1-c1cccc(F)c1)n1nc(-c2cc(O)cc(Cl)c2)c2c(N)ncnc21` (stereo not drawn) [Example 86a, 2-(1-(4-amino-3-(3-chloro-5-hydroxyphenyl)-1H-pyrazolo[3,4-d]pyrimidin-1-yl)ethyl)-3-(3-fluorophenyl)-4H-chromen-4-one] registered a melting point of 122 to 124 °C. Besides, on P110 δ/Pi3K δ, the inhibition is 50 to 100%.

For the molecule `CC(c1oc2ccccc2c(=O)c1-c1cccc(F)c1)n1nc(-c2cccc(OC(F)(F)F)c2)c2c(N)ncnc21` (stereo not drawn) [Example 87, 2-(1-(4-amino-3-(3-(trifluoromethoxy)phenyl)-1H-pyrazolo[3,4-d]pyrimidin-1-yl)ethyl)-3-(3-fluorophenyl)-4H-chromen-4-one], the melting point was in the range of 155 to 157 °C. At P110 δ/Pi3K δ, this molecule showed an inhibition of 50 to 100%.

`CC(c1oc2ccccc2c(=O)c1-c1cccc(F)c1)n1nc(-c2ccc(O)cc2)c2c(N)ncnc21` (stereo not drawn) [Example 88a, 2-(1-(4-amino-3-(4-hydroxyphenyl)-1H-pyrazolo[3,4-d]pyrimidin-1-yl)ethyl)-3-(3-fluorophenyl)-4H-chromen-4-one]: the melting point was 244 to 247 °C. For the same molecule, the inhibition against P110 δ/Pi3K δ is 50 to 100%.

Molecule `Nc1ncnc2c1ncn2Cc1oc2ccccc2c(=O)c1-c1cccc(F)c1` [Example 89, 2-((6-amino-9H-purin-9-yl)methyl)-3-(3-fluorophenyl)-4H-chromen-4-one] came in with a melting point of 224 to 227 °C. This molecule also showed an inhibition at P110 δ/Pi3K δ of less than 50%.

In turn, `Nc1cccc(-c2nn(Cc3oc4ccccc4c(=O)c3-c3ccccc3)c3ncnc(N)c23)c1` [Example 91, 2-((4-amino-3-(3-aminophenyl)-1H-pyrazolo[3,4-d]pyrimidin-1-yl)methyl)-3-phenyl-4H-chromen-4-one] had a melting point of 157 to 159 °C. The same molecule gave an inhibition at P110 δ/Pi3K δ of less than 50%.

In turn, `CC(c1oc2ccccc2c(=O)c1-c1cccc(F)c1)n1nc(-c2cnc(N)nc2)c2c(N)ncnc21` (stereo not drawn) [Example 93, 2-(1-(4-amino-3-(2-aminopyrimidin-5-yl)-1H-pyrazolo[3,4-d]pyrimidin-1-yl)ethyl)-3-(3-fluorophenyl)-4H-chromen-4-one] gave a melting point of 264 to 268 °C. The molecule also yielded an inhibition against P110 δ/Pi3K δ of 50 to 100%.

`CC(c1oc2ccccc2c(=O)c1-c1cccc(F)c1)n1nc(-c2ccc3cc[nH]c3c2)c2c(N)ncnc21` (stereo not drawn) [Example 94, 2-(1-(4-amino-3-(1H-indol-6-yl)-1H-pyrazolo[3,4-d]pyrimidin-1-yl)ethyl)-3-(3-fluorophenyl)-4H-chromen-4-one] had a melting point of 222 to 225 °C. At P110 δ/Pi3K δ, this molecule gave an inhibition of 50 to 100%.

With `CC(c1oc2ccccc2c(=O)c1-c1cccc(F)c1)n1nc(-c2ccc(Cl)c(O)c2)c2c(N)ncnc21` (stereo not drawn) [Example 95a, 2-(1-(4-amino-3-(4-chloro-3-hydroxyphenyl)-1H-pyrazolo[3,4-d]pyrimidin-1-yl)ethyl)-3-(3-fluorophenyl)-4H-chromen-4-one], the melting point lay within 134 to 136 °C. For the same molecule, at P110 δ/Pi3K δ, the inhibition lay within 50 to 100% and the IC50 was less than 250 nM.

`CC(c1oc2ccccc2c(=O)c1-c1cccc(F)c1)n1nc(-c2cc(O)ccc2Cl)c2c(N)ncnc21` (stereo not drawn) [Example 96a, 2-(1-(4-amino-3-(2-chloro-5-hydroxyphenyl)-1H-pyrazolo[3,4-d]pyrimidin-1-yl)ethyl)-3-(3-fluorophenyl)-4H-chromen-4-one] had a melting point of 192 to 195 °C. Moreover, the inhibition against P110 δ/Pi3K δ lay within 50 to 100%.

`COc1ccc(-c2nn(C(C)c3oc4ccccc4c(=O)c3-c3cccc(F)c3)c3ncnc(N)c23)cc1OC` (stereo not drawn) [Example 97, 2-(1-(4-amino-3-(3,4-dimethoxyphenyl)-1H-pyrazolo[3,4-d]pyrimidin-1-yl)ethyl)-3-(3-fluorophenyl)-4H-chromen-4-one]: the melting point lay within 232 to 235 °C. The same molecule displayed an inhibition against P110 δ/Pi3K δ of 50 to 100%.

The molecule `CC(c1oc2ccccc2c(=O)c1-c1cccc(F)c1)n1nc(-c2ccc(O)c(O)c2)c2c(N)ncnc21` (stereo not drawn) [Example 98, 2-(1-(4-amino-3-(3,4-dihydroxyphenyl)-1H-pyrazolo[3,4-d]pyrimidin-1-yl)ethyl)-3-(3-fluorophenyl)-4H-chromen-4-one] displayed a melting point of 193 to 195 °C. Further, at P110 δ/Pi3K δ, the inhibition is 50 to 100% and the IC50 was less than 250 nM.

`Cc1n[nH]c2cc(-c3nn(Cc4oc5ccccc5c(=O)c4-c4cccc(F)c4)c4ncnc(N)c34)ccc12` [Example 99, 2-((4-amino-3-(3-methyl-1H-indazol-6-yl)-1H-pyrazolo[3,4-d]pyrimidin-1-yl)methyl)-3-(3-fluorophenyl)-4H-chromen-4-one] registered a melting point of 246 to 248 °C. Further, the inhibition against P110 δ/Pi3K δ was 50 to 100%.

With `CC(c1oc2ccccc2c(=O)c1-c1cccc(F)c1)n1nc(-c2ccc3[nH]ccc3c2)c2c(N)ncnc21` (stereo not drawn) [Example 100, 2-(1-(4-amino-3-(1H-indol-5-yl)-1H-pyrazolo[3,4-d]pyrimidin-1-yl)ethyl)-3-(3-fluorophenyl)-4H-chromen-4-one], the melting point was 197 to 199 °C. The molecule also came in with an inhibition against P110 δ/Pi3K δ of 50 to 100%.

Turning to `Cc1c[nH]c2ccc(-c3nn(C(C)c4oc5ccccc5c(=O)c4-c4cccc(F)c4)c4ncnc(N)c34)cc12` (stereo not drawn) [Example 101, 2-(1-(4-Amino-3-(3-methyl-1H-indol-5-yl)-1H-pyrazolo[3,4-d]pyrimidin-1-yl)ethyl)-3-(3-fluorophenyl)-4H-chromen-4-one], the melting point is 171 to 173 °C. For the same molecule, the inhibition against P110 δ/Pi3K δ is less than 50%.

As to `CC(c1oc2ccccc2c(=O)c1-c1cccc(F)c1)n1nc(-c2ccc(CN)s2)c2c(N)ncnc21` (stereo not drawn) [Example 102a, 2-(1-(4-amino-3-(5-(aminomethyl)thiophen-2-yl)-1H-pyrazolo[3,4-d]pyrimidin-1-yl)ethyl)-3-(3-fluorophenyl)-4H-chromen-4-one], the melting point lay within 275 to 278 °C. Also, the inhibition against P110 δ/Pi3K δ was less than 50%.

In the case of `Cc1n[nH]c2cc(-c3nn(Cc4oc5ccc(F)cc5c(=O)c4-c4ccccc4)c4ncnc(N)c34)ccc12` [Example 103, 2-((4-amino-3-(3-methyl-1H-indazol-6-yl)-1H-pyrazolo[3,4-d]pyrimidin-1-yl)methyl)-6-fluoro-3-phenyl-4H-chromen-4-one], the melting point lay within 277 to 279 °C. Besides, at P110 δ/Pi3K δ, the inhibition lay in the range of 50 to 100% and the IC50 was less than 250 nM.

In the case of `Cc1n[nH]c2cc(-c3nn(C(C)c4oc5ccccc5c(=O)c4-c4ccccc4)c4ncnc(N)c34)ccc12` (stereo not drawn) [Example 104, 2-(1-(4-amino-3-(3-methyl-1H-indazol-6-yl)-1H-pyrazolo[3,4-d]pyrimidin-1-yl)ethyl)-3-phenyl-4H-chromen-4-one], the melting point was 249 to 252 °C. In addition, at P110 δ/Pi3K δ, the inhibition is 50 to 100% and the IC50 was less than 250 nM.

`CC(c1oc2ccccc2c(=O)c1-c1cccc(F)c1)n1nc(-c2ccc(N)cc2)c2c(N)ncnc21` (stereo not drawn) [Example 107a, 2-(1-(4-amino-3-(4-aminophenyl)-1H-pyrazolo[3,4-d]pyrimidin-1-yl)ethyl)-3-(3-fluorophenyl)-4H-chromen-4-one] had a melting point of 91 to 94 °C. The same molecule yielded an inhibition on P110 δ/Pi3K δ of less than 50%.

Consider `Nc1ncnc2c1c(-c1cc(O)cc(F)c1)nn2Cc1oc2ccc(F)cc2c(=O)c1-c1cccc(F)c1` [Example 120a, 2-((4-amino-3-(3-fluoro-5-hydroxyphenyl)-1H-pyrazolo[3,4-d]pyrimidin-1-yl)methyl)-6-fluoro-3-(3-fluorophenyl)-4H-chromen-4-one], for which the melting point was 127 to 129 °C. On P110 δ/Pi3K δ, this molecule displayed an inhibition of 50 to 100%.

Molecule `CC(c1oc2ccc(F)cc2c(=O)c1-c1cccc(F)c1)n1nc(-c2cccc(O)c2)c2c(N)ncnc21` (stereo not drawn) [Example 121a, 2-(1-(4-amino-3-(3-hydroxyphenyl)-1H-pyrazolo[3,4-d]pyrimidin-1-yl)ethyl)-6-fluoro-3-(3-fluorophenyl)-4H-chromen-4-one] gave a melting point of 193 to 196 °C. Further, the inhibition against P110 δ/Pi3K δ lay in the range of 50 to 100%.

As to `Nc1ncnc2c1c(-c1cc(F)c(O)c(F)c1)nn2Cc1oc2ccc(F)cc2c(=O)c1-c1cccc(F)c1` [Example 127a, 2-((4-amino-3-(3,5-difluoro-4-hydroxyphenyl)-1H-pyrazolo[3,4-d]pyrimidin-1-yl)methyl)-6-fluoro-3-(3-fluorophenyl)-4H-chromen-4-one], the melting point fell in the range of 274 to 278 °C. The same molecule came in with an inhibition on P110 δ/Pi3K δ of less than 50%.

`CC(C)Oc1ccc(F)c(-c2nn(C(C)c3oc4ccccc4c(=O)c3-c3cccc(F)c3)c3ncnc(N)c23)c1` (stereo not drawn) [Example 132, 2-(1-(4-amino-3-(2-fluoro-5-isopropoxyphenyl)-1H-pyrazolo[3,4-d]pyrimidin-1-yl)ethyl)-3-(3-fluorophenyl)-4H-chromen-4-one] registered a melting point of 198 to 201 °C. Also, the inhibition on P110 δ/Pi3K δ was less than 50%.

`COc1ccc(-c2nn(C(C)c3oc4ccccc4c(=O)c3-c3cccc(F)c3)c3ncnc(N)c23)cc1Cl` (stereo not drawn) [Example 157, 2-(1-(4-amino-3-(3-chloro-4-methoxyphenyl)-1H-pyrazolo[3,4-d]pyrimidin-1-yl)ethyl)-3-(3-fluorophenyl)-4H-chromen-4-one] registered a melting point of 246 to 249 °C. On P110 δ/Pi3K δ, this molecule displayed an inhibition of less than 50%.

As for `CC(c1oc2ccccc2c(=O)c1-c1cccc(F)c1)n1nc(-c2ccc(F)nc2)c2c(N)ncnc21` (stereo not drawn) [Example 159, 2-(1-(4-amino-3-(6-fluoropyridin-3-yl)-1H-pyrazolo[3,4-d]pyrimidin-1-yl)ethyl)-3-(3-fluorophenyl)-4H-chromen-4-one], the melting point fell in the range of 203 to 206 °C. Also, at P110 δ/Pi3K δ, the inhibition was less than 50%.

In the case of `COCc1cccc(-c2nn(C(C)c3oc4ccccc4c(=O)c3-c3cccc(F)c3)c3ncnc(N)c23)c1` (stereo not drawn) [Example 161, 2-(1-(4-amino-3-(3-(methoxymethyl)phenyl)-1H-pyrazolo[3,4-d]pyrimidin-1-yl)ethyl)-3-(3-fluorophenyl)-4H-chromen-4-one], the melting point fell in the range of 167 to 170 °C. The inhibition against P110 δ/Pi3K δ is less than 50%.

Broadly, the inhibition is the change of the read-out against control, counted positive when it falls. By melting point is commonly meant the temperature of the solid-liquid transition.

Source of the values: patent US9421209B2, “Kinase modulators” (Rhizen Pharmaceuticals SA, priority 2009, dated 2016).
